Reference: US6518308B2, “Compositions for adhesion prevention” (priority 2000, dated 2003)

Legend:
[1] = test system: human mesothelial cells or human fibroblasts; experiment: cell cultures under hypoxic conditions, production of inflammatory cytokines and growth factors; type: cell-based; conditions: human mesothelial cells or human fibroblasts cultured under hypoxic conditions, presence vs absence of dichloroacetic acid
Procedure: Similarly, cell cultures using human mesothelial cells or human fibroblasts are cultured under hypoxic conditions in the presence and absence of dichloroacetic acid. The production of inflammatory cytokines and growth factors is measured, and found to be reduced in the presence of dichloroacetic acid. These growth factors, such as IL-1 and TGF-β, are believed to be associated with adhesion development.

[2] = animal adhesion study, monitoring of serum alanine and lactate; type: in vivo, rat or rabbit; conditions: in the presence of dichloroacetic acid, intravenous injection or slow release
Procedure: An animal adhesion study to evaluate the effectiveness of the pharmaceutical compositions described previously is conducted using a standardized animal model, such as a model of cecal abrasion in the rat or an oravian bisection in the rabbit.
The animals undergo lesioning by a surgeon unaware of group assignment, with necropsy performed one to two weeks later as is standard for that particular animal model.
The animals are randomized in a placebo control group and a group using dichloroacetic acid. The treatment begins preoperatively, and continues for five days after surgery. Dichloroacetic acid is administered by intravenous injection, or by slow release from a delivery agent, and is left in the peritoneal cavity following surgery. The maintenance of adequate amounts of dichloroacetic acid can be monitored by the measurement of serum alanine and lactate, which is reduced in the presence of dichloroacetic acid. Necropsy is performed on the animals, and adhesions are scored. Studies are completed on a total of 30 animals in each group in at least three settings.

O=C(O)C(Cl)Cl [dichloroacetic acid]
production of inflammatory cytokines and growth factors (such as IL-1 and TGF-β) [1]: reduced | serum alanine and lactate [2]: reduced
